These results are taken from patent US12673927B2, “Substituted aminothiazoles as DGKzeta inhibitors for immune activation” (Deutsches Krebsforschungszentrum, priority 2020, dated 2026).

T1 sequence (Q13574 with tags, fused parts or gaps): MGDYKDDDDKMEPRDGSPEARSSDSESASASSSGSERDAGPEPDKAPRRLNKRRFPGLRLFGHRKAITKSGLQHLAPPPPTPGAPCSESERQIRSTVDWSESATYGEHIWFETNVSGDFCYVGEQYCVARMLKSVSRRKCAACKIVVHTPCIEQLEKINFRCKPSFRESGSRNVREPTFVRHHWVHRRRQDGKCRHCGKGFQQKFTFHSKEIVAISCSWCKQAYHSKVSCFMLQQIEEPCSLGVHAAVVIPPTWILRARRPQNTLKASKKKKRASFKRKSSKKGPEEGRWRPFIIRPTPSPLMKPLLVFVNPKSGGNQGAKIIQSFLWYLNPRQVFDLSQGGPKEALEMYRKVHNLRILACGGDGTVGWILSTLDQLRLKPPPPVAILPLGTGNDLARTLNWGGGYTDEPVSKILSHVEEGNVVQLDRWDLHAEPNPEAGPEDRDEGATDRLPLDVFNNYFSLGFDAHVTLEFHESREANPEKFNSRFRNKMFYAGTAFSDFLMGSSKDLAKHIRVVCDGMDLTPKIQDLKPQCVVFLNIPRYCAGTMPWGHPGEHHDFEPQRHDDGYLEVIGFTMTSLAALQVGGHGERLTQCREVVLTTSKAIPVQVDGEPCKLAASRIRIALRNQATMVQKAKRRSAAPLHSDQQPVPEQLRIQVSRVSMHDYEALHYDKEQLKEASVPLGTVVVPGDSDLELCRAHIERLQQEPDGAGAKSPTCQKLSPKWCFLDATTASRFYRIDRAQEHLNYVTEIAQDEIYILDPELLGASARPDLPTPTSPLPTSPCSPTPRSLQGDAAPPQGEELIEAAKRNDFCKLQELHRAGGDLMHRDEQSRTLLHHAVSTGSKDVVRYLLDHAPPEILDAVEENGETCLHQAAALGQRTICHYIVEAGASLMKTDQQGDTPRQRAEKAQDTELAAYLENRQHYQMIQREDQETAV

This assay has as its target T1, human DGKζ (Homo sapiens, UniProt Q13574).
T1 construct: made in house; host or cells: Sf9 insect cells, baculovirus
Kind of assay: Human DGKζ kinase activity inhibition assay (ADP-Glo). The class given is biochemical. The following applies: recombinant full-length human DGKζ, 55 μM ATP, 7 μM 1,2-dioleoyl-sn-glycerol, 20 min at 22° C.; read-out: IC50 in vitro human DGKζ kinase activity inhibition assay. As for the experimental part: Human DGKζ Kinase Activity Inhibition Assay
Human diacylglycerol kinase zeta (DGKζ) inhibitory activity of compounds of the present invention was quantified employing the human DGKζ kinase activity assay as described in the following paragraphs. In essence, the enzyme activity was measured by quantification of the adenosine-di-phosphate (ADP) generated as a co-product of the enzyme reaction via the “ADP-Glo™ Kinase Assay” kit from the company Promega. This detection system works as follows: In a first step the adenosine-tri-phosphate (ATP) not consumed in the kinase reaction is quantitatively converted to cyclic adenosine-mono-phosphate (cAMP) employing an adenylate cyclase (“ADP-Glo-reagent”), then the adenylate cyclase is stopped and the ADP generated in the kinase reaction is converted to ATP, which subsequently generates in a luciferase-based reaction a glow-luminescence signal (“Kinase Detection Reagent”).
C-terminally FLAG-tagged, recombinant full-length human DGKζ (inhouse expressed in baculovirus infected insect cells, purified using anti-Flag pulldown and size exclusion chromatography) was used as enzyme. As an alternative, commercially available enzyme by Carnabio can be used. As substrate for the kinase, 1,2-dioleoyl-sn-glycerol, reconstituted in octyl-β-D-glucopyranoside micelles, was used. […] Subsequently, 22.55 volumes of a 510 mM solution of octyl-β-D-glucopyranoside (Sigma-Aldrich, Cat. #08001-10G) in 50 mM MOPS buffer (pH 7.4) were added, and the mixture was sonicated in an ultrasonic bath for 20 s. Then 35 volumes of 50 mM MOPS buffer (pH 7.4) were added to yield a solution of 0.28 mM 1,2 dioleoyl-sn-glycerol and 200 mM octyl-β-D-glucopyranoside, which was aliquoted, flash-frozen in liquid nitrogen, and stored at −20° C. until use.
For the assay 50 nl of a 100-fold concentrated solution of the test compound in dimethyl sulfoxide (DMSO, Sigma) was pipetted into either a white 1536-well or a white low-volume 384-well microtiter plate (both Greiner Bio-One, Frickenhausen, Germany). […] The concentration of DGKζ was adjusted depending of the activity of the enzyme lot and was chosen appropriate to have the assay in the linear range, a typical concentration is about 0.1 nM. The reaction was stopped by the addition of 2.5 μL of “ADP-Glo-reagent” (1 to 1.5 diluted with water) and the resulting mixture was incubated at 22° C. for 1 h to convert the ATP not consumed in the kinase reaction completely to cAMP. Subsequently 2.5 μl of the “kinase detection reagent” (1.2 fold more concentrated than recommended by the producer) were added, the resulting mixture was incubated at 22° C. for 1 h and then the luminescence measured with a suitable measurement instrument (e.g. Viewlux™ from Perkin-Elmer). The amount of emitted light was taken as a measure for the amount of ADP generated and thereby for the activity of the DGKζ.
The data were normalised (enzyme reaction without inhibitor=0% inhibition, all other assay components but no enzyme=100% inhibition).
(In ADP-Glo the light output rises with the ADP produced.)
For orientation: IC50 means the concentration that gives 50% inhibition. Take `Cc1nc(N(c2ccc(F)cc2)C(C)C(N)=O)sc1C(=O)c1ccc(OC(F)F)cc1` (racemic) [Example 54]: the IC50 turned out to be 20.7 nM.

Consider `NC(=O)CN(c1ccc(F)cc1)c1nc(N)c(C(=O)c2ccccc2)s1` (racemic) [Example 71], for which the IC50 was determined as 2310 nM.

As to `Cc1ccc(C(=O)c2sc(N(CC(N)=O)c3ccc(F)cc3)nc2N)cc1` (racemic) [Example 72], the IC50 worked out at 985 nM.

As to `CC(C(N)=O)N(c1ccc(F)cc1)c1nc(N)c(C(=O)c2ccc(C#N)c(F)c2)s1` (single isomer, unassigned) [Example 21.2, 2-(N-[4-amino-5-(4-cyano-3-fluoro-benzoyl)thiazol-2-yl]-4-fluoro-anilino)propanamide], the half-inhibitory concentration (IC50) was 51 nM.

For the molecule `CC(C(N)=O)N(c1ccc(F)cc1)c1nc(N)c(C(=O)c2ccc(Cl)cc2)s1` (single isomer, unassigned) [Example 38.2, 2-(N-[4-amino-5-(4-chlorobenzoyl)thiazol-2-yl]-4-fluoro-anilino)propanamide], the IC50 was found to be 7.37 nM.

On to `CC(C(N)=O)N(c1ccc(F)c(F)c1)c1nc(N)c(C(=O)c2ccc(OC(F)F)cc2)s1` (single isomer, unassigned) [Example 49.1, 2-(N-[4-amino-5-[4-(difluoromethoxy)benzoyl]thiazol-2-yl]-3,4-difluoro-anilino)propanamide], for which the IC50 worked out at 1030 nM.

Turning to `COc1ccc(C(=O)c2sc(N(c3ccc(F)c(F)c3)C(C)C(N)=O)nc2N)cc1` (single isomer, unassigned) [Example 51.1, 2-(N-[4-amino-5-(4-methoxybenzoyl)thiazol-2-yl]-3,4-difluoro-anilino)propanamide], the IC50 was 8.85 nM.

On to `COc1ccc(C(=O)c2sc(N(c3ccc(F)c(F)c3)C(C)C(N)=O)nc2N)cc1` (single isomer, unassigned) [Example 51.2, 2-(N-[4-amino-5-(4-methoxybenzoyl)thiazol-2-yl]-3,4-difluoro-anilino)propanamide], for which the IC50 worked out at 872 nM.

On to `CC(C(N)=O)N(c1ccc(Cl)c(F)c1)c1nc(N)c(C(=O)c2ccncc2)s1` (single isomer, unassigned) [Example 56.2, 2-(N-[4-amino-5-(pyridine-4-carbonyl)thiazol-2-yl]-4-chloro-3-fluoro-anilino)propanamide], for which the IC50 turned out to be 7640 nM.

As for `CC(C(N)=O)N(c1cccc(F)c1)c1nc(N)c(C(=O)c2ccccc2)s1` (single isomer, unassigned) [Example 74.2, 2-(N-(4-amino-5-benzoyl-thiazol-2-yl)-3-fluoro-anilino)propanamide], the IC50 turned out to be 81.4 nM.

In the case of `CC(C(N)=O)N(c1nc(N)c(C(=O)c2ccccc2)s1)c1ccccc1F` (single isomer, unassigned) [Example 75.2, 2-(N-(4-amino-5-benzoyl-thiazol-2-yl)-2-fluoro-anilino)propanamide], the IC50 is 214 nM.

For `Cc1cccc(N(c2nc(N)c(C(=O)c3ccccc3)s2)C(C)C(N)=O)c1` (single isomer, unassigned) [Example 76.2, 2-(N-(4-amino-5-benzoyl-thiazol-2-yl)-3-methyl-anilino)propanamide], the IC50 stood at 11000 nM.

On to `CC(C(N)=O)N(c1ccc(F)cc1)c1nc(N)c(C(=O)c2ccc(OCC(=O)NCC34CC5CC(CC(C5)C3)C4)cc2)s1` (single isomer, unassigned) [Example 143, 2-(N-[5-[4-[2-(1-adamantylmethylamino)-2-oxo-ethoxy]benzoyl]-4-amino-thiazol-2-yl]-4-fluoro-anilino)propanamide], for which the IC50 was determined as 12.7 nM.

On to `CC(C(N)=O)N(c1ccc(F)cc1)c1nc(N)c(C(=O)c2ccc(OCC(=O)NCCC34CC5CC(CC(C5)C3)C4)cc2)s1` (single isomer, unassigned) [Example 144], for which the IC50 is 8.79 nM.

Consider `CC(C(N)=O)N(c1ccc(F)cc1)c1nc(N)c(C(=O)c2ccc(OCC(=O)Nc3ccc(Cl)cc3)cc2)s1` (single isomer, unassigned) [Example 145, 2-(N-[4-amino-5-[4-[2-(4-chloroanilino)-2-oxo-ethoxy]benzoyl]thiazol-2-yl]-4-fluoro-anilino)propanamide], for which the IC50 turned out to be 2.66 nM.

`CC(C(N)=O)N(c1ccc(F)cc1)c1nc(N)c(C(=O)c2ccc(OCC(=O)Nc3ccc(C(N)=O)cc3)cc2)s1` (single isomer, unassigned) [Example 146, 4-([2-[4-[4-amino-2-(4-fluoro-N-[2-amino-1-methyl-2-oxo-ethyl]anilino)thiazole-5-carbonyl]phenoxy]acetyl]amino]benzamide]: the IC50 was found to be 21.6 nM.

For the molecule `CC(C(N)=O)N(c1ccc(F)cc1)c1nc(N)c(C(=O)c2ccc(OCC(=O)NCCN3CCCCC3)cc2)s1` (single isomer, unassigned) [Example 148, 2-(N-[4-amino-5-[4-[2-oxo-2-[2-(1-piperidyl)ethylamino]ethoxy]benzoyl]thiazol-2-yl]-4-fluoro-anilino)propanamide], the concentration for half-maximal inhibition (IC50) amounted to 76.4 nM.

For `CC(C(N)=O)N(c1ccc(F)cc1)c1nc(N)c(C(=O)c2ccc(OCC(N)=O)cc2)s1` (single isomer, unassigned) [Example 149, 2-(N-[4-amino-5-[4-(2-amino-2-oxo-ethoxy)benzoyl]thiazol-2-yl]-4-fluoro-anilino)propanamide], the IC50 was found to be 405 nM.

On to `CNC(=O)COc1ccc(C(=O)c2sc(N(c3ccc(F)cc3)C(C)C(N)=O)nc2N)cc1` (single isomer, unassigned) [Example 150, 2-(N-[4-amino-5-[4-[2-(methylamino)-2-oxo-ethoxy]benzoyl]thiazol-2-yl]-4-fluoro-anilino)propanamide], for which the 50% inhibitory concentration (IC50) worked out at 372 nM.

In the case of `CNC(=O)COc1ccc(C(=O)c2sc(N(c3ccc(F)cc3)C(C)C(N)=O)nc2N)cc1` (single isomer, unassigned) [Example 151, 2-(N-[4-amino-5-[4-[2-(methylamino)-2-oxo-ethoxy]benzoyl]thiazol-2-yl]-4-fluoro-anilino)propanamide], the concentration for half-maximal inhibition (IC50) amounted to 387 nM.

Regarding `CC(C)NC(=O)COc1ccc(C(=O)c2sc(N(c3ccc(F)cc3)C(C)C(N)=O)nc2N)cc1` (single isomer, unassigned) [Example 152, 2-(N-[4-amino-5-[4-[2-(isopropylamino)-2-oxo-ethoxy]benzoyl]thiazol-2-yl]-4-fluoro-anilino)propanamide], the IC50 came to 111 nM.

With `CC(C)NC(=O)COc1ccc(C(=O)c2sc(N(c3ccc(F)cc3)C(C)C(N)=O)nc2N)cc1` (single isomer, unassigned) [Example 153, 2-(N-[4-amino-5-[4-[2-(isopropylamino)-2-oxo-ethoxy]benzoyl]thiazol-2-yl]-4-fluoro-anilino)propanamide], the IC50 turned out to be 107 nM.

Turning to `CC(C(N)=O)N(c1ccc(F)c(Cl)c1)c1nc(N)c(C(=O)c2ccncc2)s1` (single isomer, unassigned) [Example 160.1, 2-(N-[4-amino-5-(pyridine-4-carbonyl)thiazol-2-yl]-3-chloro-4-fluoro-anilino)propanamide], the IC50 is 115 nM.

In the case of `CC(C(N)=O)N(c1ccc(F)c(F)c1)c1nc(N)c(C(=O)c2ccc(OC(F)F)nc2)s1` (single isomer, unassigned) [Example 163.1, 2-(N-[4-amino-5-[6-(difluoromethoxy)pyridine-3-carbonyl]thiazol-2-yl]-3,4-difluoro-anilino)propanamide], the IC50 worked out at 5 nM.

On to `CC(C(N)=O)N(c1ccc(Cl)c(F)c1)c1nc(N)c(C(=O)c2ccc(OC(F)F)nc2)s1` (single isomer, unassigned) [Example 164.2, 2-(N-[4-amino-5-[6-(difluoromethoxy)pyridine-3-carbonyl]thiazol-2-yl]-4-chloro-3-fluoro-anilino)propanamide], for which the IC50 stood at 944 nM.

In the case of `CC(C(N)=O)N(c1ccc(Cl)c(F)c1)c1nc(N)c(C(=O)c2ccc(OCc3ccccc3)cc2)s1` (single isomer, unassigned) [Example 166.1, 2-(N-[4-amino-5-(4-benzyloxybenzoyl)thiazol-2-yl]-4-chloro-3-fluoro-anilino)propanamide], the IC50 is 2 nM.
